Read-outs that look alike come from different tables or passages of the source.
Experiments:
dyskinesia [1] = settings: rhesus monkey models; cited from earlier work
[2] = tested on: L-DOPA induced dyskinesia; assay: L-DOPA induced dyskinesia model in monkey (MPTP-treated, L-DOPA methylester and benserazide); assay type: in vivo, crab-eating macaques; settings: substance administered 20 minutes before L-DOPA methylester and benserazide, scored every 30 minutes for 5 hours
Description: To male crab-eating macaques, MPTP (1-methyl-4-phenyl-1,2,3,6-tetrahydropyridine) was frequently administered intravenously or subcutaneously in a dose of 0.2 to 1 mg/kg to cause Parkinson's disease.
In order to check the effect of the substance to be tested, i.e., 3-(2-cyanophenyl)-5-(2-pyridyl)-1-phenyl-1,2-dihydropyridine-2-on, the administration dose of L-DOPA methylester was adjusted to control the severity of the dyskinesia to a certain state.
The behavior before the administration of drugs (L-DOPA methylester and benserazide) was recorded, and then the substance to be tested was administered. 20 minutes after that, L-DOPA methylester and benserazide were administered.
The severity of the symptoms of Parkinson's disease was evaluated based on the items shown in Table 1 in a blinded manner, and shown as the total score.
The dyskinesia induced by the side effects of the administration of L-DOPA methylester and benserazide was evaluated based on the items shown in Table 2 in a blinded manner. […]
The symptoms were evaluated in a time-series manner before the administration of the drugs, and every 30 minutes after the administration of the drugs, for a total of 5 hours. The effect of the substance to be tested was determined as follows. […]

dyskinesia [3] = settings: cited from earlier work
dyskinesia [4] = settings: cited from earlier work; remark: listed apart in the source

## CCN(CC)Cc1cccc(C=Cc2nc3ccc(F)cc3c(=O)n2-c2ccccc2Cl)n1 [3-(2-chlorophenyl)-2-[2-(6-diethylaminomethylpyridine-2-yl)-vinyl]-6-fluoro-3H-quinazoline-4-on]
Dyskinesia [1]
  effect on dyskinesia: has an effect on dyskinesia

## N#Cc1ccccc1-c1cc(-c2ccccn2)cn(-c2ccccc2)c1=O [3-(2-cyanophenyl)-5-(2-pyridyl)-1-phenyl-1,2-dihydropyridine-2-on]
[2]; FIG. 1, significant vs solvent P<0.01
  effect on dyskinesia (dyskinesia score, severity of dyskinesia): provided an dyskinesia suppressing action
[2]; FIG. 2, significant vs solvent P<0.05, P<0.01
  effect on the symptoms of Parkinson's disease (total score): clearly improving the symptoms of Parkinson's disease

## CC(=O)N1N=C(c2ccc(N)cc2)c2cc3c(cc2C[C@H]1C)OCO3 [LY-300164, Talampanel]
Dyskinesia [3]; MPTP-treated monkeys with L-DOPA induced dyskinesia
  effect on dyskinesia: the dyskinesia were improved
Dyskinesia [3]; experiment with the monkeys
  effect on the symptoms of Parkinson's disease (symptom scores): not recognized as having an effect of clearly improving the symptoms of Parkinson's disease

## CC1(C)O[C@@H]2[C@@H](CO[C@@]3(COS(N)(=O)=O)OC(C)(C)O[C@@H]23)O1 [Topiramate]
Dyskinesia [4]; in vivo
  effect on the symptoms of Parkinson's disease: shows a tendency of deteriorating the symptoms of Parkinson's disease, although not significantly
Dyskinesia [4]; marmoset models
  effect on dyskinesia: has an action of suppressing dyskinesia

Source: US20090030017A1, “THERAPEUTIC AGENT FOR DYSKINESIA” (Eisai R & D Management Co., Ltd, priority 2005, published 2009)
